{"source": "patent US20140329275A1", "about": "“BIOCATALYSIS CELLS AND METHODS” (REGENTS OF THE UNIVERSITY OF MINNESOTA, priority 2011, published 2014)", "key": {"[1]": {"tested_on": "KIVD", "settings": "Yep et al., Bioorg. Chem. 34:325-336 (2006); cited from earlier work"}, "[2]": {"biological_target": "IPDC (Salmonella enterica, UniProt H9L492)", "sequence (H9L492 1-550)": "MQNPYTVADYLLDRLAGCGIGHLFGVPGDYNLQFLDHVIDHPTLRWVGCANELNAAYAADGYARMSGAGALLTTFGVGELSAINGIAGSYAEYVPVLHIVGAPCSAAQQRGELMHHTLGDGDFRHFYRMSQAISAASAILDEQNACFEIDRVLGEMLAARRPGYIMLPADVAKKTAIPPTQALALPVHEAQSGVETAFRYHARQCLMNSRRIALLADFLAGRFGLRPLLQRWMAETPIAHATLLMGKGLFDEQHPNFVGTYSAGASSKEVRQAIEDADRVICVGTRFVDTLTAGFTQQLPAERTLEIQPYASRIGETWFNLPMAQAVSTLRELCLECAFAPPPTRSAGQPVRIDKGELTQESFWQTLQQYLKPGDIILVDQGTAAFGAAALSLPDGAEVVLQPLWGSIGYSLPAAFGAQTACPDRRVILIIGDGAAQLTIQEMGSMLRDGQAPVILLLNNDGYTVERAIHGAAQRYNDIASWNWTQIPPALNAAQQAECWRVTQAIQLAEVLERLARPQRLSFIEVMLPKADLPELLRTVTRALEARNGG", "settings": "ketoleucine vs ketovaline"}}, "data": [{"compound": "CC(C)C(=O)C(=O)O", "note": "[ketovaline]", "values": [{"measurement": "Km", "setting": "[1]", "value": 2.8, "unit": "mM"}, {"measurement": "kcat of KIVD", "setting": "[1]", "value": 48, "unit": "s⁻¹"}]}, {"compound": "CC(C)CC(=O)C(=O)O", "note": "[ketoleucine]", "values": [{"measurement": "Km", "setting": "[1]", "value": 37, "unit": "mM"}, {"measurement": "kcat of KIVD", "setting": "[1]", "value": 49, "unit": "s⁻¹"}, {"measurement": "specificity constant kcat/Km of IPDC, fold higher than towards ketovaline", "setting": "[2]", "value": 4, "unit": "fold"}]}]}
